According to ChEMBL document CHEMBL1136602 (Bioorg Med Chem Lett, 2003):

Tests used:
Mus musculus [1] = assay: Anticocaine activity was assessed through attenuation of convulsions caused by the intraperitoneal administration of cocaine 60 mg/kg in mice; assay type: functional
Sigma 2 receptor = assay: Binding affinity towards Sigma-2 receptor
[2] = molecular target: Sigma non-opioid intracellular receptor 1 (Homo sapiens, UniProt Q99720); assay: Binding affinity towards Sigma-1 receptor
Mus musculus [3] = assay: Anticocaine activity was assessed through attenuation of convulsions caused by the intraperitoneal administration of cocaine 60 mg/kg in mice; Agonist activity exacerbated the convulsive effects of cocaine; assay type: functional, organism-based; set-up: dose 60 mg/kg; conditions: filed as agonist

Sigma non-opioid intracellular receptor 1, sequence (Q99720 whole entry): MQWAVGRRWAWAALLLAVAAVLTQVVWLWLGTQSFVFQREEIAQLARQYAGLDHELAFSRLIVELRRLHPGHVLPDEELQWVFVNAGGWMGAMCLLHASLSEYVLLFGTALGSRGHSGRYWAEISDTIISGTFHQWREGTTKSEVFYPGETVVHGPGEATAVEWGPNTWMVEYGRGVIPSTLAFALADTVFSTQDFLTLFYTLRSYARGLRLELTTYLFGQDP

Structure (SMILES) | AD50 (Mus musculus [1]) [mg/kg] | Ki (Sigma 2 receptor) [nM] | Ki [2] [nM] | AD50 (Mus musculus [3])
Clc1cccc(CN2CCN(Cc3ccccc3)CC2)c1 | 8 | 56.4 | 0.46 | –
Clc1ccc(CN2CCN(Cc3ccccc3)CC2)c(Cl)c1 | 16 | 123 | 7.6 | –
c1ccc(CN2CCN(Cc3ccccc3)CC2)cc1 | 23 | 1270 | – | –
COc1ccc(CN2CCN(Cc3ccccc3)CC2)cc1 | 27 | 161 | 0.47 | –
COc1cccc(CN2CCN(Cc3ccccc3)CC2)c1 | 17 | 108 | 0.39 | –
CN(CCc1ccc(Cl)c(Cl)c1)CCN1CCCC1 | 2 | 8 | – | –
Clc1ccccc1CN1CCN(Cc2ccccc2)CC1 | 15 | 527 | 5.3 | –
Clc1ccc(CN2CCN(Cc3ccccc3)CC2)cc1 | 29 | 187 | 1.4 | –
Clc1ccc(CN2CCN(Cc3ccccc3)CC2)cc1Cl | – | 7.54 | 0.58 | Agonist activity exacerbated the convulsive effects of cocaine
